Source: paper PMC6118079 (Iranian Journal of Basic Medical Sciences, 2018)

Test system: krait snake venom acetylcholinesterase (AChE)
Assay type: biochemical, Bungarus sindanus
Details: no extract (control); 0.5-1 mM substrate, 50 mM phosphate pH 7.4, 37 °C; crude venom as enzyme source

**Q.** With `CC(=O)SCC[N+](C)(C)C` [acetylthiocholine] as the compound, how does the Km read?
**A.** Its Km is 160 µM.
